Results: patent US4276375A, “Determination of serine proteases” (AB Kabi, priority 1976, dated 1981)
Structures can show the parent of a compound that is named as a salt. Residues, ends and D or L forms follow the SMILES beside them. *: point of attachment. pNA = O=[N+]([O-])c1ccc(N*)cc1; Piperidide = C1CCN(*)CC1; Bz = O=C(c1ccccc1)*; NHiPr = CC(C)N*; OiPr = CC(C)O*

Assays:
Format in all cases: biochemical
[1] = target: T1, factor Xa (Bos taurus, UniProt P00743); assay: Determination of Km and Vmax (Lineweaver-Burk, hydrolysis of chromogenic substrate read at 405 nm); settings: value is Vmax multiplied by 10^8; Tris buffer pH 8.3, I 0.25, 37° C., enzyme Diagen
T1 construct: purchased Diagnostic Reagents (product 'Diagen', 6.4 Denson U)
Protocol: (§1) Km and Vmax are obtained by means of the Lineweaver-Burk equation: [formula] Enzyme and substrate are mixed in a buffer solution and the rate of hydrolysis is measured spectrophotometrically. The substrate concentration (So) is varied while the enyzme concentration is kept constant. The reciprocal velocity l/vo is then plotted against the reciprocal substrate concentration l/So, and Km and Vmax are estimated (Table 1) from the obtained Lineweaver-Burk diagram.
(§2) Buffer Tris (tris(hydroxymethyl)aminomethane)
(§3) 0.05 mole/l, pH = 8.3, I = 0.25 (NaCl)
(§4) Enzyme Diagen (6.4 Denson U) (Diagnostic Reagents)
(§5) . 1 ampule is dissolved in 2 ml of water.
(§6) The substrate is dissolved in water to 2 mmole/l.
(§7) Mix and read change of absorbance (Δ OD/min) at […]

[2] = target: T1, factor Xa; assay: Relative activity (rate of substrate hydrolysis, Δ OD/min at 405 nm); settings: S-2222 = 100, 250 μl of 2 mmole/l substrate in 2500 μl, Tris buffer pH 8.3, 37° C.
Protocol: as §2, §3, §4, §5, §6
Substrate, +37° C.250 μl
as §7

[3] = substrate: CCOC(=O)CC[C@H](NC(=O)[C@@H](NC(=O)c1ccccc1)[C@@H](C)CC)C(=O)NCC(=O)N[C@@H](CCCNC(=N)N)C(=O)Nc1ccc([N+](=O)[O-])cc1; assay: Determination of Km and Vmax (Lineweaver-Burk, hydrolysis of chromogenic substrate read at 405 nm); settings: other: value is Km multiplied by 10^4, Tris buffer 0.05 mole/l, pH 8.3, I 0.25 (NaCl), 37° C., enzyme Diagen, 37.0 °C
Protocol: as §1, §2, §3, §4, §5, §6, §7

[4] = substrate: CC[C@H](C)[C@H](NC(=O)c1ccccc1)C(=O)N[C@@H](CCC(=O)N1CCCCC1)C(=O)NCC(=O)N[C@@H](CCCNC(=N)N)C(=O)Nc1ccc([N+](=O)[O-])cc1; assay: as above; settings: other: value is Km multiplied by 10^4, Tris buffer 0.05 mole/l, pH 8.3, I 0.25 (NaCl), 37° C., enzyme Diagen, 37.0 °C
Protocol: as §1, §2, §3, §4, §5, §6, §7

[5] = substrate: CC[C@H](C)[C@H](NC(=O)c1ccccc1)C(=O)N[C@@H](CCC(=O)NC(C)C)C(=O)NCC(=O)N[C@@H](CCCNC(=N)N)C(=O)Nc1ccc([N+](=O)[O-])cc1; assay: as above; settings: other: value is Km multiplied by 10^4, Tris buffer 0.05 mole/l, pH 8.3, I 0.25 (NaCl), 37° C., enzyme Diagen, 37.0 °C
Protocol: as §1, §2, §3, §4, §5, §6, §7

[6] = substrate: CC[C@H](C)[C@H](NC(=O)c1ccccc1)C(=O)N[C@@H](CCC(=O)O)C(=O)NCC(=O)N[C@@H](CCCN=C(N)N)C(=O)Nc1ccc([N+](=O)[O-])cc1; assay: as above; settings: other: stated in the text; pH 8.3
Protocol: as §1, §2, §3, §4, §5, §6, §7

[7] = substrate: CC[C@H](C)[C@H](NC(=O)c1ccccc1)C(=O)N[C@@H](CCC(=O)OC(C)C)C(=O)NCC(=O)N[C@@H](CCCNC(=N)N)C(=O)Nc1ccc([N+](=O)[O-])cc1; assay: as above; settings: other: value is Km multiplied by 10^4, Tris buffer 0.05 mole/l, pH 8.3, I 0.25 (NaCl), 37° C., enzyme Diagen, 37.0 °C
Protocol: as §1, §2, §3, §4, §5, §6, §7

[8] = substrate: CC[C@H](C)[C@H](NC(=O)c1ccccc1)C(=O)N[C@@H](CCC(=O)OC)C(=O)NCC(=O)N[C@@H](CCCNC(=N)N)C(=O)Nc1ccc([N+](=O)[O-])cc1; assay: as above; settings: other: value is Km multiplied by 10^4, Tris buffer 0.05 mole/l, pH 8.3, I 0.25 (NaCl), 37° C., enzyme Diagen, 37.0 °C
Protocol: as §1, §2, §3, §4, §5, §6, §7

Q: `CC[C@H](C)[C@H](NC(=O)c1ccccc1)C(=O)N[C@@H](CCC(=O)OC(C)C)C(=O)NCC(=O)N[C@@H](CCCNC(=N)N)C(=O)Nc1ccc([N+](=O)[O-])cc1` [Ex. 3, Bz-Ile-Glu(OisoPr)-Gly-Arg-pNA.HCl] (Bz-IE(OiPr)GR-pNA) was tested. Which “Vmax · 10^8” value [1] did it give?
A: 7.1 mol/min · U

Q: And the Relative activity [2]?
A: 220

Q: `CC[C@H](C)[C@H](NC(=O)c1ccccc1)C(=O)N[C@@H](CCC(=O)O)C(=O)NCC(=O)N[C@@H](CCCNC(=N)N)C(=O)Nc1ccc([N+](=O)[O-])cc1` [Example S-2222, Benzoyl-Ile-Glu-Gly-Arg-p-nitroanilide, reference compound] (Bz-IEGR-pNA) was tested. Which “Vmax · 10^8” value [1] did it give?
A: 8.6 mol/min · U

Q: What about the Relative activity [2] of the same molecule?
A: 100

Q: What does the source list for `CC[C@H](C)[C@H](NC(=O)c1ccccc1)C(=O)N[C@@H](CCC(=O)NC(C)C)C(=O)NCC(=O)N[C@@H](CCCNC(=N)N)C(=O)Nc1ccc([N+](=O)[O-])cc1` [Ex. 6] (Bz-IE(NHiPr)GR-pNA)?
A: Vmax · 10^8 [1]: 20.0 mol/min · U; Relative activity [2]: 340

Q: `CCOC(=O)CC[C@H](NC(=O)[C@@H](NC(=O)c1ccccc1)[C@@H](C)CC)C(=O)NCC(=O)N[C@@H](CCCNC(=N)N)C(=O)Nc1ccc([N+](=O)[O-])cc1` [Ex. 2, Bz-Ile-Glu(OEt)-Gly-Arg-pNA.HCl] (Bz-IE(OEt)GR-pNA) was tested. Which “Vmax · 10^8” value [1] did it give?
A: 7.5 mol/min · U

Q: What about the Relative activity [2] of the same molecule?
A: 200

Q: What does the source list for `CC[C@H](C)[C@H](NC(=O)c1ccccc1)C(=O)N[C@@H](CCC(=O)OC)C(=O)NCC(=O)N[C@@H](CCCNC(=N)N)C(=O)Nc1ccc([N+](=O)[O-])cc1` [Ex. 1, Bz-Ile-Glu(OMe)-Gly-Arg-pNA.HCl] (Bz-IE(OMe)GR-pNA)?
A: Vmax · 10^8 [1]: 8.1 mol/min · U; Relative activity [2]: 230

Q: `CC[C@H](C)[C@H](NC(=O)c1ccccc1)C(=O)N[C@@H](CCC(=O)N1CCCCC1)C(=O)NCC(=O)N[C@@H](CCCNC(=N)N)C(=O)Nc1ccc([N+](=O)[O-])cc1` [Ex. 7] (Bz-IE(Piperidide)GR-pNA) was tested. Which “Vmax · 10^8” value [1] did it give?
A: 8.6 mol/min · U

Q: And the Relative activity [2]?
A: 300

B1: factor Xa (Bos taurus) (protein)
chain 1: IVGGRDCAEGECPWQALLVNEENEGFCGGTILNEFYVLTAAHCLHQAKRFTVRVGDRNTEQEEGNEMAHEVEMTVKHSRFVKETYDFDIAVLRLKTPIRFRRNVAPACLPEKDWAEATLMTQKTGIVSGFGRTHEKGRLSSTLKMLEVPYVDRSTCKLSSSFTITPNMFCAGYDTQPEDACQGDSGGPHVTRFKDTYFVTGIVSWGEGCARKGKFGVYTKVSNFLKWIDKIMKARAGAAGSRGHSEAPATWTVPPPLPL
chain 2: ANSFLEEVKQGNLERECLEEACSLEEAREVFEDAEQTDEFWSKYKDGDQCEGHPCLNQGHCKDGIGDYTCTCAEGFEGKNCEFSTREICSLDNGGCDQFCREERSEVRCSCAHGYVLGDDSKSCVSTERFPCGKFTQGRS
notes: purchased Diagnostic Reagents (product 'Diagen', 6.4 Denson U)
Q: How did the Km [3] turn out when B1 was run?
A: 290 µM

Q: What about the Km [4] of the same molecule?
A: 170 µM

Q: And the Km [5]?
A: 560 µM

Q: What about the Km [6] of the same molecule?
A: 830 µM

Q: And the Km [7]?
A: 210 µM

Q: What about the Km [8] of the same molecule?
A: 260 µM
